Source: publication PMC8228537, “Acrylonitrile Derivatives against Trypanosoma cruzi: In Vitro Activity and Programmed Cell Death Study” (Pharmaceuticals, 2021)
Entries after “also recorded” stand apart in the source; their conditions may differ.

Columns and labels:
[1] = Cytotoxicity, alamarBlue, murine macrophages; assay type: cell-based; settings: mouse, J774A.1 murine macrophage cell line, J774A.1 murine macrophages, mean ± SD
Experimental: The cytotoxicity was evaluated against murine macrophages (J774A.1) using the same method mentioned in the antiparasitic assay, based on the alamarBlue Cell Viability Reagent®. In a sterile 96-well plate, 10^4 cells per well were added, then, after the complete adhesion, serial dilutions of the 32 compounds, using a deep well plate, and a 10% of alamarBlue® were joined.

[2] = system: epimastigote stage of T. cruzi; assay: Antiparasitic activity, alamarBlue, epimastigotes; assay type: cell-based, Trypanosoma cruzi; settings: for IC50: 72 h, epimastigote stage of T. cruzi (Y strain), alamarBlue, mean ± SD, NA: not active; for Selectivity index (SI): ratio of CC50 for J774A.1 and IC50 for epimastigotes of T. cruzi
Experimental: Epimastigotes of Trypanosoma cruzi (Y strain) were used in this study and cultured in liver infusion tryptose (LIT) medium supplemented with 10% of foetal bovine serum (FBS) at 26 °C.
In a sterile 96-well plate, a serial dilution of acrylonitriles was carried out in LIT medium supplemented with 10% FBS with a final volume of 100 µL. Parasites were added to wells to reach a concentration of 10^5 parasites per well. Finally, a 10% of alamarBlue Cell Viability Reagent® (ThermoFisher Scientific, Waltham, MA, USA) was added into each well, and the plate was incubated for 72 h at 26°C.

Trypanosoma cruzi = assay: Programmed cell death study (overall conclusion from the PCD assays); assay type: cell-based; settings: overall conclusion from ROS, mitochondrial potential, ATP and chromatin condensation assays
Experimental: Different assays were performed to elucidate which pathways could be triggered by these acrylonitriles. The most probable cellular process induced by our compounds is the apoptosis or programmed cell death (PCD), in which the inflammatory response is weakly activated, in contrast to a necrotic event, where the inflammatory response is strong.

[3] = system: epimastigotes of Trypanosoma cruzi; assay: Reactive oxygen species analysis (CellROX Deep Red); assay type: cell-based; settings: 24 h with the IC90, Figure 5
Experimental: The CellROX® reagent emits red fluorescence in the presence of reactive oxygen species.
The oxidative stress was measured with the CellROX® Deep Red Reagent (ThermoFisher Scientific, MA, USA). […] Finally, the fluorescence was analyzed using the EVOS® FL Cell Imaging System (ThermoFisher Scientific, MA, USA) with the Cy5 light cube.

[4] = system: epimastigotes of Trypanosoma cruzi; assay: Chromatin condensation analysis (Hoechst 33342/propidium iodide); assay type: cell-based; settings: 24 h with the IC90, Figure 1
Experimental: Vybrant® Apoptosis Assay Kit n°5, Hoechst 33342/Propidium Iodide (ThermoFisher Scientific, MA, USA) was used to determinate the chromatin condensation of the treated parasites. […] Thereafter, Hoechst (5 µg/mL) and propidium iodide (PI) (1 µg/mL) were added and incubated for 20 min at 26 °C. The EVOS® FL Cell Imaging System (ThermoFisher Scientific, MA, USA) was used to capture the fluorescence images, using the DAPI (Hoechst) and RFP (PI) light cubes.

[5] = system: epimastigotes of Trypanosoma cruzi; assay: ATP level analysis (CellTiter-Glo); assay type: cell-based; settings: 24 h with the IC90, CellTiter-Glo, Figure 3
Experimental: Variations in the level of ATP were measured with the CellTiter-Glo® Luminescent Cell Viability Assay (Promega, WI, USA). […] Then, in a white 96-well plate, the epimastigotes were resuspended in 25µL of culture media and mixed with 25 µL of the kit. After 10 min of incubation at room temperature, the luminescence was measured using an EnSpire Multimode Plate Reader® (PerkinElmer). The results were expressed in percentage of production of ATP level relative to the negative control (without any treatment).

[6] = system: epimastigotes of Trypanosoma cruzi; assay: Plasmatic membrane permeability analysis (SYTOX Green); assay type: cell-based; settings: 24 h with the IC90, Figure 4
Experimental: The use of the dye SYTOX® Green reagent means that when the plasmatic permeability is altered, it is possible for the reagent to go inside the cells, joining the parasitic DNA and emitting an intense green fluorescence.
To determine the plasmatic membrane permeability, SYTOX® Green nucleic acid stain fluorescent dye (ThermoFisher Scientific, MA, USA) was used. […] The pellet was resuspended in a 50 µL staining buffer and the Sytox® Green at 1 µM (final concentration). After 15 min of incubation at room temperature, parasites were analyzed. Fluorescence pictures were taken with the EVOS® FL Cell Imaging System (ThermoFisher Scientific, MA, USA).

SMILES	CC50 at 24 h [1]	IC50 ([2]; Trypanosoma cruzi)	Selectivity index (SI) [2]	Induction of programmed cell death (apoptosis-like process) (Trypanosoma cruzi)	Reactive oxygen species (CellROX Deep Red fluorescence) [3]	Chromatin condensation (Hoechst 33342 blue fluorescence) [4]	Dead cells (propidium iodide red fluorescence) [4]	Percentage of ATP level relative to untreated control [5]	Plasma membrane permeability (SYTOX Green fluorescence) [6]	IC50 [2]
N#C/C=C/C(=O)c1cccs1 [Compound Q13, (E)-4-Oxo-4-(thiophen-2-yl)but-2-enenitrile]	8.52 ± 0.04 µM	25 ± 0.62 µM	0.34							
N#C/C=C\C(=O)c1cccs1 [Compound Q14, (Z)-4-Oxo-4-(thiophen-2-yl)but-2-enenitrile]	8.39 ± 0.25 µM	26.5 ± 2.83 µM								
N#C/C=C/C(=O)C1CCCCC1 [Compound Q16, (E)-4-Cyclohexyl-4-oxobut-2-enenitrile]	4.35 ± 0.25 µM	7.65 ± 1.51 µM	0.57							
N#C/C=C\C(=O)c1ccccc1 [Compound Q12, (Z)-4-Oxo-4-phenylbut-2-enenitrile]	7.64 ± 1.21 µM	20.9 ± 4.61 µM	0.36							
Cc1ccc(S(=O)(=O)/C=C/C#N)cc1 [Compound Q21, (E)-3-Tosylacrylonitrile]		3.86 ± 0.67 µM	0.83							
COC(=O)/C=C\C#N [Compound Q2, (Z)-Methyl 3-cyanoacrylate]	112 ± 15.8 µM	25.9 ± 2.78 µM		did not show evidence of causing a programmed cell death mechanism						
N#C/C=C/C(=O)c1ccccc1 [Compound Q11, (E)-4-Oxo-4-phenylbut-2-enenitrile]	5.22 ± 1.02 µM	5.53 ± 1.36 µM	0.94							
N#C/C=C\C(=O)Oc1ccccc1 [Compound Q8, (Z)-phenyl 3-cyanoacrylate]	52.9 ± 4.51 µM	4.36 ± 0.26 µM		shown to induce an apoptosis-like cell death	less intense fluorescence					
COC(=O)/C=C/C#N [Compound Q1, (E)-Methyl 3-cyanoacrylate]	87.4 ± 7.02 µM	17.4 ± 4.75 µM		did not show evidence of causing a programmed cell death mechanism						
N#C/C=C/C(=O)Oc1ccccc1 [Compound Q7, (E)-phenyl 3-cyanoacrylate]	46.5 ± 3.81 µM	15.5 ± 1.27 µM		robust evidence of inducing all the physiological features of an apoptosis-like process; also recorded: shown to induce an apoptosis-like cell death	less intense fluorescence	intense blue fluorescence in the nucleus, indicating chromatin condensation	red fluorescence, indicating already dead cells	32.68%	more remarkable	
N#C/C=C\P(=O)(c1ccccc1)c1ccccc1 [Compound Q20, (Z)-3-(diphenylphosphoryl)acrylonitrile]	50.6 ± 10.8 µM	49.1 ± 1.12 µM	1.03							
N#C/C=C/P(=O)(c1ccccc1)c1ccccc1 [Compound Q19, (E)-3-(diphenylphosphoryl)acrylonitrile]	22.2 ± 3.24 µM	14.6 ± 3.44 µM		robust evidence of inducing all the physiological features of an apoptosis-like process		intense blue fluorescence in the nucleus, indicating chromatin condensation	red fluorescence, indicating already dead cells	30.78%	more remarkable	
CCOC(=O)/C=C/C#N [Compound Q3, (E)-Ethyl 3-cyanoacrylate]	86.7 ± 22.8 µM	46.4 ± 5.73 µM		did not show evidence of causing a programmed cell death mechanism	most intense red fluorescence					
CCCCCCCCOC(=O)/C=C/C#N [Compound Q5, (E)-Octyl 3-cyanoacrylate]	53.9 ± 12.8 µM	34.3 ± 1.67 µM		robust evidence of inducing all the physiological features of an apoptosis-like process	less intense fluorescence	intense blue fluorescence in the nucleus, indicating chromatin condensation	red fluorescence, indicating already dead cells		more remarkable	
CON(C)C(=O)/C=C\C#N [Compound Q28, (Z)-3-Cyano-N-methoxy-N-methylacrylamide]	210 ± 8.99 µM									
N#C/C=C/C(=O)CCc1ccccc1 [Compound Q17, (E)-4-Oxo-6-phenylhex-2-enenitrile]	5.24 ± 0.7 µM	14.1 ± 2.53 µM	0.37							
N#C/C=C/C(=O)c1ccco1 [Compound Q15, (E)-4-(Furan-2-yl)-4-oxobut-2-enenitrile]	6.66 ± 1.77 µM	32.9 ± 0.83 µM	0.20							
CCOP(=O)(/C=C/C#N)OCC [Compound Q18, (E)-Diethyl 2-cyanovinylphosphonate]					less intense fluorescence		red fluorescence, indicating already dead cells			14.8 ± 3.06 µM
CCCCCC(=O)/C=C/C#N [Compound Q10, (E)-4-Oxonon-2-enenitrile]	10.1 ± 1.46 µM	11 ± 1.38 µM	0.92							
N#C/C=C/C(=O)N1CCCC1 [Compound Q25, (E)-4-Oxo-4-(pyrrolidin-1-yl)but-2-enenitrile]	374 ± 47.9 µM	154 ± 19.8 µM		did not show evidence of causing a programmed cell death mechanism						
CCCCCCCCOC(=O)/C=C\C#N [Compound Q6, (Z)-Octyl 3-cyanoacrylate]	28.8 ± 2.53 µM	51.9 ± 7.69 µM	0.55							
CCOC(=O)/C=C\C#N [Compound Q4, (Z)-Ethyl 3-cyanoacrylate]	43.2 ± 9.83 µM	47.3 ± 10.6 µM	0.91							
